Source: PMC11270681, “Synthesis and Systematic Investigation of Lepidiline A and Its Gold(I), Silver(I), and Copper(I) Complexes Using In Vitro Cancer Models and Multipotent Stem Cells” (ACS Omega, 2024)
Values joined by “and” are separate entries in the source; they are usually repeats but may differ in a detail not shown here. Equal values may be shown once. Each block holds one compound with its values, some of them ahead of it.

Legend:
HL-60 leukemia line = test system: HL-60 leukemia line; parameters: method as in PMID 34808062; settings: cited from earlier work
IGROV-1 = test: Cytotoxicity (PrestoBlue), ovarian cancer line; assay type: cell-based; settings: IGROV-1, 72 h incubation
Protocol: (§1) OVCAR-3 (OVC-3) and OVCAR-8 (OVC-8) ovarian serous adenocarcinomas, IGROV-1 ovarian endometrioid adenocarcinoma, OVCAR-5 (OVC-5) upper gastrointestinal carcinoma, MDA-MB-231 breast adenocarcinoma, and MCF-7 and T-47D invasive breast carcinomas were purchased from the Developmental Therapeutic Program of the National Cancer Institute (NIH, USA) and were cultured in an RPMI medium (Thermo Fisher). Mes-Sa and Mes-Sa/Dx5 uterine sarcoma cell lines were purchased from American Type Culture Collection (ATCC) and were kept in DMEM (Thermo Fisher). Mes-Sa B1 was transfected with the human MDR1 gene, and Mes-Sa mCherry, Mes-Sa B1 mOrange, and Mes-Sa/Dx5 eGFP were engineered to stably express the respective fluorescent proteins previously.[51] Culture media for cancer cells were supplemented with 10% fetal bovine serum, 2 mM L-glutamine, and 100 units/mL penicillin and 100 μg/mL streptomycin (Thermo Fisher). The adipose tissue and bone marrow-derived mesenchymal stem cells (AD-MSC and BM-MSC) were described previously[37] and were kept in DMEM-F12 (Gibco) supplemented with 10% fetal bovine serum, L-glutamine (Thermo Fisher), 0.1% gentamicin (Gibco, 50 mg/mL), and 16 ng/mL fibroblast growth factor 2 (Peprotech). Cells were kept at 37 °C under 5% CO2 and were negative for mycoplasma infection.
(§2) Cytotoxicities of the nonfluorescent cancer cells were assessed with a PrestoBlue cell viability reagent (Thermo Fisher). Briefly, 2500 cells/well were seeded on 384-well plates; then, the next-day drugs were added. After 72 h of incubation, PrestoBlue was added in a 10% final concentration, and after an hour of additional incubation, plates were measured with a PerkinElmer EnSpire plate reader at 555 nm/585 nm excitation/emission wavelengths. Stem cells were seeded on 96-well plates at a density of 5000 cells/well, and the following day, drugs were added for 96 h of incubation; then, viability was assessed with 10% PrestoBlue diluted in PBS. Fluorescent cancer cells were admixed before seeding on 384-well plates at an 800 cells/well density each, thus altogether 2400 cells/well. Drugs were added the following day, and the intensity of the fluorescent proteins was measured after 144 h of incubation at the respective fluorescent channels (excitation/emission, eGFP: 485 nm/510 nm; mCherry: 585 nm/610 nm; mOrange: 545 nm/567 nm). pIC50 values were calculated by a custom program written by Judit Sessler in C#. IC50 values and standard deviation were calculated from average pIC50 values from at least 3 independent measurements.

OVC-3 = test: Cytotoxicity (PrestoBlue), ovarian cancer line; assay type: cell-based; settings: OVC-3, 72 h incubation
Protocol: as §1, §2

OVC-8 = test: Cytotoxicity (PrestoBlue), ovarian cancer line; assay type: cell-based; settings: OVC-8, 72 h incubation
Protocol: as §1, §2

OVC-5 = test: Cytotoxicity (PrestoBlue), upper gastrointestinal cancer line; assay type: cell-based; settings: OVC-5, 72 h incubation, PrestoBlue
Protocol: as §1, §2

MCF-7 [1] = test: Cytotoxicity (PrestoBlue), breast cancer line; assay type: cell-based; settings: MCF-7, 72 h incubation
Protocol: as §1, §2

MDA-MB-231 = test: Cytotoxicity (PrestoBlue), breast cancer line; assay type: cell-based; settings: MDA-MB-231, 72 h incubation
Protocol: as §1, §2

T-47D [2] = test: Cytotoxicity (PrestoBlue), breast cancer line; assay type: cell-based; settings: 72 h incubation
Protocol: as §1, §2

Mes-Sa [3] = test: Cytotoxicity, uterine sarcoma parental line; assay type: cell-based; settings: fluorescent protein intensity after 144 h
Protocol: as §1, §2

Mes-Sa B1 = test: Cytotoxicity, MDR1-transfected uterine sarcoma line; assay type: cell-based; settings: Mes-Sa B1 (MDR1 transfected, ABCB1 expressing), fluorescent protein intensity after 144 h
Protocol: as §1, §2

Mes-Sa/Dx5 = test: Cytotoxicity, doxorubicin-selected MDR uterine sarcoma line; assay type: cell-based; settings: Mes-Sa/Dx5 (doxorubicin selected, ABCB1 expressing), fluorescent protein intensity after 144 h
Protocol: as §1, §2

AD-MSC = test: Cytotoxicity (PrestoBlue), adipose-derived mesenchymal stem cells; assay type: cell-based; settings: 96 h incubation
Protocol: as §1, §2

BM-MSC = test: Cytotoxicity (PrestoBlue), bone marrow-derived mesenchymal stem cells; assay type: cell-based; settings: 96 h incubation
Protocol: as §1, §2

im. BM-MSC = test: Cytotoxicity (PrestoBlue), immortalized bone marrow MSC; assay type: cell-based; settings: 96 h incubation
Protocol: as §1, §2

[4] = test system: 3 ovarium cancer lines (IGROV-1, OVC-3, and OVC-8); test: Cytotoxicity, range over 3 ovarium cancer lines; assay type: cell-based; settings: IGROV-1, OVC-3, OVC-8
Protocol: as §1, §2

[5] = test system: 3 breast cancer cell lines (MDA-MB-231, MCF-7 and T-47D); test: Cytotoxicity, range over 3 breast cancer cell lines; assay type: cell-based; settings: MDA-MB-231, MCF-7, T-47D
Protocol: as §1, §2

MSCs = test: Cytotoxicity, range over MSCs; assay type: cell-based; settings: AD-MSC, BM-MSC, immortalized BM-MSC
Protocol: as §1
(§3) Cytotoxicities of the nonfluorescent cancer cells were assessed with a PrestoBlue cell viability reagent (Thermo Fisher). Briefly, 2500 cells/well were seeded on 384-well plates; then, the next-day drugs were added. After 72 h of incubation, PrestoBlue was added in a 10% final concentration, and after an hour of additional incubation, plates were measured with a PerkinElmer EnSpire plate reader at 555 nm/585 nm excitation/emission wavelengths. Stem cells were seeded on 96-well plates at a density of 5000 cells/well, and the following day, drugs were added for 96 h of incubation; then, viability was assessed with 10% PrestoBlue diluted in PBS. […] IC50 values and standard deviation were calculated from average pIC50 values from at least 3 independent measurements.

cancer lines = test: Cytotoxicity, range over cancer lines; assay type: cell-based; settings: all cancer lines tested; read-out: IC50 range over cancer lines
Protocol: as §1, §3

[6] = test system: Bone marrow MSCs (BM-MSC); test: Cytotoxicity, range over bone marrow MSCs; assay type: cell-based; settings: BM-MSC and immortalized BM-MSC
Protocol: as §1, §2

MCF-7 [7] = test: H2DCFDA intracellular ROS production assay; assay type: cell-based; settings: MCF-7, 50 μM, 4 h incubation, vs medium
Protocol: (§4) To assess intracellular ROS production, we used a H2DCFDA cellular ROS assay kit (ab113851, Abcam) according to the manufacturer’s instructions. Briefly, 20,000 cells were seeded on 96-well plates. On the following day, cells were washed, and H2DCFDA solution, prepared by avoiding direct light, was added for 45 min. Next, cells were washed, and 50 μM samples of test compounds were aspirated on the cells in a complete and phenol red-free medium (FluoroBrite, Thermo Fisher). At each hour, fluorescence of 2′,7′-dichlorofluorescein (DCF) was measured at 484 nm/535 nm excitation/emission wavelengths. Values were normalized to 0 h measurements. Values indicate at least 3 independent measurements.

Mes-Sa [8] = test: H2DCFDA intracellular ROS production assay; assay type: cell-based; settings: 50 μM, 4 h incubation, vs medium
Protocol: as §4

T-47D [9] = test: H2DCFDA intracellular ROS production assay; assay type: cell-based; settings: 50 μM, 4 h incubation, vs medium
Protocol: as §4

[10] = Stability in serum-free culture medium by HPLC-UV; assay type: physicochemical; settings: for AUC (HPLC-UV), single measurements 1-5 / AUC (HPLC-UV), average: serum-free culture medium
Protocol: Stability of the metal complexes in solution was measured in serum-free culture medium. The compounds were dissolved in DMSO right before the experiment. Solutions of Cu-LA and Ag-LA contained 1% final volume of DMSO, while Au-LA contained 30% DMSO. Samples were taken right after dilution, and after 1 h, 2 h, 4 h, 8 h, 16 h, 32 and 48 h, and measured by HPLC-UV.

SMILES: COc1cccc(C[n+]2c(C)c(C)n(Cc3ccccc3)c2C)c1 [lepidiline D]
IC50 (HL-60 leukemia line): 1.1 µM

SMILES: CC(=O)OC[C@H]1O[C@@H]([S-])[C@H](OC(C)=O)[C@@H](OC(C)=O)[C@@H]1OC(C)=O.CCP(CC)CC.[Au+] [Auranofin, auranofin, reference compound]
IC50 (IGROV-1): 1.93 µM
IC50 (OVC-3): 1.71 µM
IC50 (OVC-8): 2.27 µM
IC50 (OVC-5): 6.96 µM
IC50 (OVC-5; listed as auranofin): 7 µM
IC50 (MCF-7 [1]): 2.83 µM
IC50 (MDA-MB-231): 1.15 µM
IC50 (T-47D [2]): 2.31 µM
IC50 (Mes-Sa [3]): 2.21 µM
IC50 (Mes-Sa B1): 3.22 µM
IC50 (Mes-Sa/Dx5): 1.4 µM
IC50 (AD-MSC): 2.16 µM
IC50 (BM-MSC): 2.88 µM
IC50 (im. BM-MSC): 2.61 µM
IC50 [4]: 1.7 to 2.3 µM
IC50 [5]: 1.2 to 2.8 µM
IC50 (MSCs): 2.2 to 2.9 µM
IC50 (cancer lines): 1.2 to 7 µM

SMILES: COc1cc([C@@H]2c3cc4c(cc3[C@@H](O[C@@H]3O[C@@H]5CO[C@@H](C)O[C@H]5[C@H](O)[C@H]3O)[C@H]3COC(=O)[C@H]23)OCO4)cc(OC)c1O [Etoposide, etoposide, reference compound]
IC50 (Mes-Sa [3]; Homo sapiens): 0.26 µM
IC50 (Mes-Sa B1; Homo sapiens): 1.17 µM
IC50 (Mes-Sa/Dx5; Homo sapiens, MES-SA/Dx5, 144 h): 1.7 µM

AUC (HPLC-UV), single measurements 1-5 ([10]; 0 h): 1030 and 1011 and 1021 and 1023 and 1047
AUC (HPLC-UV), average ([10]; 0 h, Cu-LA, Ag-LA 1% DMSO, Au-LA 30% DMSO): 1026
AUC (HPLC-UV), average ([10]; 1 h): 1019
AUC (HPLC-UV), single measurements 1-5 ([10]; 1 h): 1022 and 1016 and 1021 and 1017
AUC (HPLC-UV), average ([10]; 2 h): 1022
AUC (HPLC-UV), single measurements 1-5 ([10]; 2 h): 1021 and 1020 and 1022 and 1023
AUC (HPLC-UV), average ([10]; 4 h): 1042
AUC (HPLC-UV), single measurements 1-5 ([10]; 4 h): 1040 and 1041 and 1043 and 1044
AUC (HPLC-UV), average ([10]; 8 h): 1044
AUC (HPLC-UV), single measurements 1-5 ([10]; 8 h): 1045 and 1042 and 1044 and 1046
AUC (HPLC-UV), average ([10]; 16 h): 1042
AUC (HPLC-UV), single measurements 1-5 ([10]; 16 h): 1039 and 1042 and 1046
AUC (HPLC-UV), average ([10]; 32 h): 1038
AUC (HPLC-UV), single measurements 1-5 ([10]; 32 h): 1030 and 1041 and 1038 and 1042 and 1039
AUC (HPLC-UV), average ([10]; 48 h): 1039
AUC (HPLC-UV), single measurements 1-5 ([10]; 48 h): 1038 and 1039 and 1040
Stability in serum-free culture medium ([10]; HPLC-UV, observed 48 h): stable
SMILES: Cc1c(C)n(Cc2ccccc2)[c](=[Cu][Cl])n1Cc1ccccc1 [Cu-LA, Chloro-(1,3-dibenzyl-4,5-dimethyl-imidazol-2-ylidene)copper]
IC50 (IGROV-1): 72.9 µM
IC50 (OVC-3): 58.5 µM
IC50 (OVC-8): 67.6 µM
IC50 (OVC-5): 104 µM
IC50 (MCF-7 [1]): 41.3 µM
IC50 (MDA-MB-231): 62.5 µM
IC50 (T-47D [2]): 24.8 µM
IC50 (Mes-Sa [3]): 18.5 µM
IC50 (Mes-Sa B1): > 100 µM
IC50 (Mes-Sa/Dx5): 76.6 µM
IC50 (AD-MSC): 23.7 µM
IC50 (BM-MSC): 98.3 µM
IC50 (im. BM-MSC): 75.4 µM
IC50 [6]: 48 to 98 µM
Higher intracellular ROS formation (MCF-7 [7]): 2–3 fold
Higher intracellular ROS formation (Mes-Sa [8]): 2–3 fold
Higher intracellular ROS formation (T-47D [9]): 2–3 fold
